Source: US12649750B2, “Macrocyclic compounds, compositions, and methods of using thereof” (Sionna Therapeutics Inc., priority 2022, dated 2026)

Key:
[1] = target: T1, NBD1 (Homo sapiens, UniProt P13569); test: Aggregation analysis using differential static light scattering (DSLS), thermal stability of NBD1 (ΔTagg); assay type: binding; settings: ΔTagg versus DMSO control, NBD1 0.2 mg/ml
T1 construct: Purified recombinant NBD1 was produced using previously described methods; made in house
Procedure, shortened: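 Thermal aggregation of purified NBD1 was followed by static light scattering during a 1° C./min ramp to 70° C. Protein was at 0.2 mg/ml with 2 mM ATP at pH7.6. Each compound's Tagg was referenced to DMSO controls.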

[2] = target: T2, CFTR (Homo sapiens, UniProt P13569, DEL508-508); test: TECC24 AUC fold over DMSO @10 μM, CFTR-mediated transepithelial chloride transport in CF-HBE cells; assay type: cell-based; settings: test agent AUC divided by DMSO vehicle AUC, primary CF-HBE cells, ΔF508 homozygous donor, 48 hours incubation
T2 construct: Primary human bronchial epithelial cells from a ΔF508 homozygous CF donor; host or cells: primary human bronchial epithelial cells (CF-HBE), ΔF508 homozygous donor
T2 sequence (P13569 with tags, fused parts or gaps DEL508-508): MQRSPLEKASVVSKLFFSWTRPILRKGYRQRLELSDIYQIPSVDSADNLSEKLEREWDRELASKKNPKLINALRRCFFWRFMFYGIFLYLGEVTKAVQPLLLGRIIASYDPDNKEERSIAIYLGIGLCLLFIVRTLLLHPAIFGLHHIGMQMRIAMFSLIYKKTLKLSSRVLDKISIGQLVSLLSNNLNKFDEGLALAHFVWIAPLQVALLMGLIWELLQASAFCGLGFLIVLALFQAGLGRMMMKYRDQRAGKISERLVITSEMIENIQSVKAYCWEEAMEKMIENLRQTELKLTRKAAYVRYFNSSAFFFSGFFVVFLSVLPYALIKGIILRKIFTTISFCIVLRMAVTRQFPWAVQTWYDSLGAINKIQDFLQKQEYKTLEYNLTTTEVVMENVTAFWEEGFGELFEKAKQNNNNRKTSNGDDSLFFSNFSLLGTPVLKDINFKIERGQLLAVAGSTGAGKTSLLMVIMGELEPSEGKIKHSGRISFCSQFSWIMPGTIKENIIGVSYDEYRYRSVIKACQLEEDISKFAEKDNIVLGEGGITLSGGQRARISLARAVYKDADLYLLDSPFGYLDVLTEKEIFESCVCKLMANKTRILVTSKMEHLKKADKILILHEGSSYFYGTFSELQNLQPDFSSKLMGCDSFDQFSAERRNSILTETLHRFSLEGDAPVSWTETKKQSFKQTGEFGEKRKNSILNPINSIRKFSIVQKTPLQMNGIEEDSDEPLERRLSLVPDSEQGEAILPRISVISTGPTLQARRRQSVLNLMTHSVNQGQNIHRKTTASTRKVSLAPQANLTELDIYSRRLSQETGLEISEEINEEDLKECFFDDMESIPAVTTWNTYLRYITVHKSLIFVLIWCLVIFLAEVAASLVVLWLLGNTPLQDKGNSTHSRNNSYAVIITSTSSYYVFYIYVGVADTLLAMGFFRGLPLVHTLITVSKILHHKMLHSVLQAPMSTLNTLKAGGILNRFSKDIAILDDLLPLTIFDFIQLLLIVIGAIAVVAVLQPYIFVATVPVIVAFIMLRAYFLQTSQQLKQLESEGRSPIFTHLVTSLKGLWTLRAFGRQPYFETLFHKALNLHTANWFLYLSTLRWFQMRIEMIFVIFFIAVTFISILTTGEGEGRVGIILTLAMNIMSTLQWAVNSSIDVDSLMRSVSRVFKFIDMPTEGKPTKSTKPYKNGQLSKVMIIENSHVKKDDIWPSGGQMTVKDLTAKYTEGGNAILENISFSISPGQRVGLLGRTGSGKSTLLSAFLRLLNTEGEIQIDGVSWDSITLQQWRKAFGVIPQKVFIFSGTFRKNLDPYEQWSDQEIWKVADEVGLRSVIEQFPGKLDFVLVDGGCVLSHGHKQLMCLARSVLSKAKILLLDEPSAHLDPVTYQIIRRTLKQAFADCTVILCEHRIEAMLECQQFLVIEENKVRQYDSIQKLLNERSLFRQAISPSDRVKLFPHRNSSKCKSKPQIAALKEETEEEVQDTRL
Protocol: Example 387. TECC24 AUC Fold Over DMSO @10 μM
The effects of a test agent on CFTR-mediated transepithelial chloride transport is measured using TECC24 recording analysis. Test agents are solubilized in DMSO. Solubilized test agents are mixed with incubation medium containing DMEM/F12, Ultroser G (2%; Crescent Chemical, catalog #67042), Hyclone Fetal Clone II (2%; GE Healthcare, catalog #SH30066.02), bovine brain extract (0.25%; Lonza, catalog #CC-4098), insulin (2.5 μg/mL), IL-13 (10 ng/mL), hydrocortisone (20 nM), transferrin (2.5 μg/mL), triiodothyronine (500 nM), ethanolamine (250 nM), epinephrine (1.5 μM), phosphoethanolamine (250 nM), and retinoic acid (10 nM). Primary human bronchial epithelial cells from a ΔF508 homozygous CF donor (CF-HBE cells; from University of North Carolina Cystic Fibrosis Tissue Procurement Center), grown on Transwell HTS 24-well cell culture inserts (Costar, catalog #3378), are exposed to test agents or controls dissolved in incubation medium. The CF-HBE cells are cultured at 36.5° C. for 48 hours before TECC24 recordings are performed in the presence or absence of test agent, a positive control or vehicle (DMSO).
Following incubation, the transwell cell culture inserts containing the test agent or control-treated CF-HBE cells are loaded onto a TECC24 apparatus (TECC v7 or MTECC v2; EP Design) to record the transepithelial voltage (VT) and resistance (TEER) using 4 AgCl electrodes per well configured in current-clamp mode. The apical and basolateral bath solutions both contain (in mM) 140 NaCl, 5 KCl, 2 CaCl2, 1 MgCl2, 10 Hepes, and 10 glucose (adjusted to pH 7.4 with NaOH). To inhibit basal Na+ absorption, the ENaC inhibitor benzamil (10 μM) is added to the bath. Then, the adenylate cyclase activator, forskolin (10 μM), is added to the bath to activate CFTR. The forskolin-stimulated Cl— transport is halted by addition of CFTR inhibitor-172 (20 μM) to the bath at the end of the experiment to confirm specificity. VT and TEER recordings are digitally acquired at routine intervals using TECC or MTECC software (EP Design). VT and TEER are transformed into equivalent transepithelial Cl— current (IEQ), and the Area Under the Curve (AUC) of the IEQ time course between forskolin and CFTR inhibitor-172 addition is generated using Excel (Microsoft). Efficacy is expressed as the ratio of the test agent AUC divided by vehicle AUC. EC50s based on AUC are generated using the non-linear regression log(agonist) vs. response function in Prism software (Graphpad) with HillSlope fixed=1.
If a test agent increases the AUC of the forskolin-stimulated IEQ relative to vehicle in CF-HBE cells, and this increase is inhibited by CFTR inhibitor-172, then the test agent is considered a CFTR corrector. TECC assay efficacy is expressed as the ratio of the test agent AUC divided by DMSO vehicle AUC. As set forth in Table 2 below, a TECC value less than 12 is marked “A”; a value between 12-20 is marked “B”; a value between 20 and 80 is marked “C”. […]

T1 sequence (P13569 423-646 limits assumed): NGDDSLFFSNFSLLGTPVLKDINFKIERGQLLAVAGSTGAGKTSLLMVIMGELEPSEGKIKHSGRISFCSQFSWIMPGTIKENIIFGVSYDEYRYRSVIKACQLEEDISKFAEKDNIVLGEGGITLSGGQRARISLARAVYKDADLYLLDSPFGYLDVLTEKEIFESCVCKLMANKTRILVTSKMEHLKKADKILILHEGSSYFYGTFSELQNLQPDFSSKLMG

SMILES	DSLS 3D (100 μM ΔT) [1]	TECC (AUC, 10 μM) [2]
C[C@@H](Cc1cccc([C@@]2(C)CCCC(C)(C)CS(=O)(=O)CCc3c(c(F)cc4[nH]ccc34)Oc3ccnc(c3)-c3nc2nn3C)c1)C(=O)O (mixture of isomers) [Compound 201, (2S)-3-[3-[(6R)-22-Fluoro-3,6,10,10-tetramethyl-12,12-dioxo-24-oxa-12λ6-thia-3,4,19,28,30-pentazapentacyclo[23.3.1.12,5.015,23.016,20]triaconta-1(29),2(30),4,15,17,20,22,25,27-nonaen-6-yl]phenyl]-2-methyl-propanoic Acid]	C (a value greater than 10 °C and less than or equal to 25 °C is marked “C”)	B (a value between 12-20 is marked “B”)
CC(CC(=O)O)c1cccc([C@@]2(C)CCCC(C)(C)CS(=O)(=O)CCc3c(c(F)cc4[nH]ccc34)[S+]([O-])c3ccc(F)c(c3)-c3nc2nn3C)c1 (mixture of isomers) [Compound 217A, 3-[3-[(6R)-22,28-difluoro-3,6,10,10-tetramethyl-12,12,24-trioxo-12λ6,24λ4-dithia-3,4,19,30-tetrazapentacyclo[23.3.1.12,5.015,23.016,20]triaconta-1(29),2(30),4,15,17,20,22,25,27-nonaen-6-yl]phenyl]butanoic Acid]	B (a value above 5 °C and less than or equal to 10 °C is marked “B”)	A (a TECC value less than 12 is marked “A”)
CC(CC(=O)O)c1cccc([C@@]2(C)CCCC(C)(C)CS(=O)(=O)CCc3c(c(F)cc4[nH]ccc34)[S+]([O-])c3ccc(F)c(c3)-c3nc2nn3C)c1 (mixture of isomers) [Compound 217B, 3-[3-[(6R)-22,28-difluoro-3,6,10,10-tetramethyl-12,12,24-trioxo-12λ6,24λ4-dithia-3,4,19,30-tetrazapentacyclo[23.3.1.12,5.015,23.016,20]triaconta-1(29),2(30),4,15,17,20,22,25,27-nonaen-6-yl]phenyl]butanoic Acid]	C (a value greater than 10 °C and less than or equal to 25 °C is marked “C”)	C (a value between 20 and 80 is marked “C”)
C[C@H](Cc1cccc(C2(C)CCCC(C)(C)CS(=O)(=O)CCc3c(c(F)cc4[nH]ccc34)Oc3ccc(F)c(c3)-c3nc2nn3C)c1)C(=O)OCCN1CCN(C)CC1 (single isomer, unassigned) [Compound 182]		A (a TECC value less than 12 is marked “A”)
Cn1nc2nc1-c1cc(ccc1F)[S+]([O-])c1c(F)cc3[nH]ccc3c1CCS(=O)(=O)CC(C)(C)CCCC2(C)c1cccc(/C=C/C(=O)O)c1 (single isomer, unassigned) [Compound 210A, (E)-3-[3-(22,28-difluoro-3,6,10,10-tetramethyl-12,12,24-trioxo-12λ6,24λ4-dithia-3,4,19,30-tetrazapentacyclo[23.3.1.12,5.015,23.016,20]triaconta-1(29),2(30),4,15,17,20,22,25,27-nonaen-6-yl)phenyl]prop-2-enoic Acid]		C (a value between 20 and 80 is marked “C”)
Cn1nc2nc1-c1cc(ccc1F)[S+]([O-])c1c(F)cc3[nH]ccc3c1CCS(=O)(=O)CC(C)(C)CCCC2(C)c1cccc(/C=C/C(=O)O)c1 (single isomer, unassigned) [Compound 210B, (E)-3-[3-(22,28-difluoro-3,6,10,10-tetramethyl-12,12,24-trioxo-12λ6,24λ4-dithia-3,4,19,30-tetrazapentacyclo[23.3.1.12,5.015,23.016,20]triaconta-1(29),2(30),4,15,17,20,22,25,27-nonaen-6-yl)phenyl]prop-2-enoic Acid]		A (a TECC value less than 12 is marked “A”)
Cn1nc2nc1-c1cc(ccc1F)[S+]([O-])c1c(F)cc3[nH]ccc3c1CCS(=O)(=O)CC(C)(C)CCCC2(C)c1cccc(/C=C/C(=O)O)c1 (single isomer, unassigned) [Compound 210C, (E)-3-[3-(22,28-difluoro-3,6,10,10-tetramethyl-12,12,24-trioxo-12λ6,24λ4-dithia-3,4,19,30-tetrazapentacyclo[23.3.1.12,5.015,23.016,20]triaconta-1(29),2(30),4,15,17,20,22,25,27-nonaen-6-yl)phenyl]prop-2-enoic Acid]		B (a value between 12-20 is marked “B”)
Cn1nc2nc1-c1cc(ccc1F)[S+]([O-])c1c(F)cc3[nH]ccc3c1CCS(=O)(=O)CC(C)(C)CCCC2(C)c1cccc(/C=C/C(=O)O)c1 (single isomer, unassigned) [Compound 210D, (E)-3-[3-(22,28-difluoro-3,6,10,10-tetramethyl-12,12,24-trioxo-12λ6,24λ4-dithia-3,4,19,30-tetrazapentacyclo[23.3.1.12,5.015,23.016,20]triaconta-1(29),2(30),4,15,17,20,22,25,27-nonaen-6-yl)phenyl]prop-2-enoic Acid]		C (a value between 20 and 80 is marked “C”)
C[C@H](Cc1cccc([C@@]2(C)CCCC(C)(C)CS(=O)(=O)CCc3c(c(F)cc4[nH]ccc34)Sc3cc(c(F)cc3C(=O)O)-c3nc2nn3C)c1)C(=O)O [Compound 378, (6R)-6-[3-[(2R)-2-Carboxypropyl]phenyl]-22,28-difluoro-3,6,10,10-tetramethyl-12,12-dioxo-12λ6,24-dithia-3,4,19,30-tetrazapentacyclo[23.3.1.12,5.015,23.016,20]triaconta-1(29),2(30),4,15,17,20,22,25,27-nonaene-26-carboxylic Acid]	A (an ΔTagg value less than or equal to 5 °C is marked “A”)	
C[C@H](Cc1cccc([C@@]2(C)CCCC(C)(C)CS(=O)(=O)CCc3c(c(F)cc4[nH]ccc34)S(=O)(=O)c3cc(c(F)cc3N)-c3nc2nn3C)c1)C(=O)O [Compound 379C, (2R)-3-[3-[(6R)-26-Amino-22,28-difluoro-3,6,10,10-tetramethyl-12,12,24,24-tetraoxo-12λ6,24λ6-dithia-3,4,19,30-tetrazapentacyclo[23.3.1.12,5.015,23.016,20]triaconta-1(29),2(30),4,15,17,20,22,25,27-nonaen-6-yl]phenyl]-2-methyl-propanoic acid]	A (an ΔTagg value less than or equal to 5 °C is marked “A”)	
C[C@@H](Cc1cccc([C@@]2(C)CCCC(C)(C)CS(=O)(=O)CCc3c(c(F)c(F)c4[nH]ncc34)Oc3ccc(F)c(c3)-c3nc2nn3C)c1)C(=O)O [Compound 382, (2S)-2-Methyl-3-[3-[(6R)-21,22,28-trifluoro-3,6,10,10-tetramethyl-12,12-dioxo-24-oxa-12λ6-thia-3,4,18,19,30-pentazapentacyclo[23.3.1.12,5.015,23.016,20]triaconta-1(29),2(30),4,15,17,20,22,25,27-nonaen-6-yl]phenyl]propanoic Acid]	B (a value above 5 °C and less than or equal to 10 °C is marked “B”)	
Cc1onc(NC(=O)[C@H](C)Cc2cccc([C@@]3(C)CCCC(C)(C)CS(=O)(=O)CCc4c(c(F)c(F)c5[nH]ccc45)Oc4ccc(F)c(c4)-c4nc3nn4C)c2)c1C [Compound 384, (2R)—N-(4,5-Dimethylisoxazol-3-yl)-2-methyl-3-[3-[(6R)-21,22,28-trifluoro-3,6,10,10-tetramethyl-12,12-dioxo-24-oxa-12λ6-thia-3,4,19,30-tetrazapentacyclo[23.3.1.12,5.015,23.016,20]triaconta-1(29),2(30),4,15,17,20,22,25,27-nonaen-6-yl]phenyl]propenamide]	A (an ΔTagg value less than or equal to 5 °C is marked “A”)	
